From paper PMC7114316 (Antiviral Research, 2019)
Like-named read-outs stand apart in the source and are kept apart here.

What was measured:
[1] = target: FIPV 3CL^pro (Feline coronavirus, UniProt Q98VG9); test: FIPV 3CLpro protease inhibition assay; type: biochemical, feline infectious peritonitis virus (FIPV strain 79–1146); conditions: for IC50: 35 nM enzyme, 6 μM fluorogenic substrate
[2] = test system: FIPV strain 79–1146; test: Antiviral assay in FIPV-infected CRFK cells, summary over the test conditions; type: cell-based, feline infectious peritonitis virus; conditions: for control of FIPV infection under all the tested conditions: result in words; for EC50: Alphacoronavirus 1, CRFK, read-out: EC50, range over antiviral test conditions
[3] = test system: CRFK cells; test: Cytotoxicity assay; type: cell-based, feline; conditions: read-out: Cytotoxicity CC50, 48 h, MTS assay
[4] = test system: FIPV strain 79–1146; test: Antiviral assay, prophylactic activity; type: cell-based, feline infectious peritonitis virus; conditions: for EC50: read-out: Prophylactic antiviral activity EC50, IPMA; for Prophylactic antiviral activity SI: SI = CC50/EC50; for concentration that completely protects the cells from virus infection: prophylactic or protective activity
[5] = test system: FIPV strain 79–1146; test: Antiviral assay, post-viral entry activity; type: cell-based, feline infectious peritonitis virus; conditions: for EC50: read-out: Post-viral entry EC50, IPMA; for Post-viral entry SI: SI = CC50/EC50
[6] = test system: FIPV strain 79–1146; test: Antiviral assay, pre-viral entry activity; type: cell-based, feline infectious peritonitis virus; conditions: for EC50: read-out: Pre-viral entry EC50, IPMA, 24 h; for Pre-viral entry SI: SI = CC50/EC50
[7] = Cytotoxicity assay; type: cell-based, feline; conditions: cat, CRFK cells
[8] = test system: 3CL^pro of SARS-CoV; conditions: read-out: IC50, 3CL^pro of SARS-CoV; cited from earlier work
[9] = target: HIV-1 integrase; conditions: read-out: IC50, anti-HIV-1 integrase activities; ref Neamati et al., 1997; cited from earlier work
[10] = read-out: Protease inhibition assay (IC50)
[11] = compound incubation at 37 °C for 2 h before inoculation with FIPV at 100 TCID50/well, CRFK cells
[12] = 100 TCID50 FIPV adsorption at 37 °C for 2 h before adding the tested compounds, CRFK cells
[13] = 100 TCID50 FIPV incubation with compounds, CRFK cells
[14] = Protease inhibition assay (IC50)

Sequence of FIPV 3CL^pro (Q98VG9 2904-3205 limits assumed): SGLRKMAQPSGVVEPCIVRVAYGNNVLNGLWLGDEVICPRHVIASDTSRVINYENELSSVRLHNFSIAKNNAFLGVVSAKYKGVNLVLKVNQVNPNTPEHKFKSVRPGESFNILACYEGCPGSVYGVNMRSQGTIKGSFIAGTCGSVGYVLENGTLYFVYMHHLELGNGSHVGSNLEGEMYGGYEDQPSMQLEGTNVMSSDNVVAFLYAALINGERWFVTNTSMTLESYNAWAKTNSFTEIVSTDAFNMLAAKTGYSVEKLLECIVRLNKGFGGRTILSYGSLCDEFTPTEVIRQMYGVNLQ

## C=C1C[C@@]23CC[C@H]4[C@@](C)(CCC[C@@]4(C)C(=O)O)[C@@H]2CC[C@]1(O)C3 [CID452967]
[1]; [10]
  IC50: > 500 µM

## O=C1C(=O)N(Cc2ccc(Cc3ccc(CN4C(=O)C(=O)c5ccccc54)cc3)cc2)c2ccccc21 [CID3821945]
[2]
  control of FIPV infection under all the tested conditions: could not control FIPV infection
[3]
  CC50: 306.8 ± 0.175 µM
[4]; [11]
  EC50: > 200 µM
[1]; [10]
  IC50: 10.3 ± 2.5 µM
[5]; [12]
  EC50: > 100 µM
[6]; [13]
  EC50: > 100 µM

## COc1cc(O)c2c(=O)cc(-c3ccc(O)c(O)c3)oc2c1 [CID5318214]
[2]
  control of FIPV infection under all the tested conditions: could not control FIPV infection
[3]
  CC50: 339.3 ± 0.03 µM
[4]; [11]
  EC50: > 200 µM
[1]; [10]
  IC50: 28.5 ± 4.2 µM
[5]; [12]
  EC50: > 100 µM
[6]; [13]
  EC50: > 100 µM

## Cc1ccc(S(=O)(=O)N/N=C\C=C\c2ccccc2)cc1 [CID5372747]
[2]
  control of FIPV infection under all the tested conditions: could not control FIPV infection
[3]
  CC50: 336.2 ± 0.13 µM
[4]; [11]
  EC50: > 200 µM
[1]; [10]
  IC50: 78.4 ± 2.6 µM
[5]; [12]
  EC50: > 200 µM
[6]; [13]
  EC50: > 100 µM

## C[C@@H]1O[C@@H](Oc2cc(O)c3c(=O)c(O)c(-c4ccc(O)c(O)c4)oc3c2)[C@H](O)[C@H](O)[C@H]1O [CID5748601]
[2]
  control of FIPV infection under all the tested conditions: could not control FIPV infection
[3]
  CC50: 425.3 ± 0.13 µM
[4]; [11]
  EC50: > 200 µM
[1]; [10]
  IC50: 77.2 ± 13.8 µM
[5]; [12]
  EC50: > 100 µM
[6]; [13]
  EC50: > 100 µM

## O=c1cc(-c2ccc(O)c(O)c2)oc2cc(OCc3ccccc3)cc(O)c12 [CID71313853]
[1]; [10]
  IC50: > 500 µM

## Cc1cccc(C)c1OCC(=O)N[C@@H](Cc1ccccc1)[C@@H](O)C[C@H](Cc1ccccc1)NC(=O)[C@H](C(C)C)N1CCCNC1=O [Lopinavir, reference compound]
[2]
  EC50: 5.38 to 31.7 µM
[7]
  CC50 at 48 h: > 500 µM
[4]; Alphacoronavirus 1, CRFK
  EC50: 31.7 ± 1.37 µM
[4]
  Prophylactic antiviral activity SI: 16.61
[5]; Alphacoronavirus 1, CRFK
  EC50: 5.38 ± 2.32 µM
[5]
  Post-viral entry SI: 97.83
[6]; Alphacoronavirus 1, CRFK
  EC50: 8.56 ± 0.47 µM
[6]
  Pre-viral entry SI: 61.52
[8]
  IC50: ~50 µM

## CC[C@](C)(O)C(=O)O[C@H]1C(=O)O[C@@H]2C[C@H]3C(C)=C[C@H](O)[C@@H](O)[C@]3(C)[C@H]3[C@]4(O)OC[C@]32[C@@H]1[C@@H](C)[C@H]4O [NSC14975]
[1]; [14]
  IC50: > 500 µM

## O=C1c2cc(O)c(O)cc2OC(c2ccc(O)c(O)c2)C1O (centres unmarked) [NSC36398]
[1]; [10]
  IC50: > 500 µM

## C[C@]1(O)CC[C@H]2[C@@H]3CC[C@H]4C[C@@H](O)CC[C@]4(C)[C@@]3(F)[C@@H](O)C[C@@]21C [NSC38273]
[1]; [10]
  IC50: > 500 µM

## COc1cc(C)c2c(c1C=O)Oc1c(c(C)c(O)c3c1C(O)OC3=O)OC2=O (centres unmarked) [NSC87511, Stictic acid]
[9]
  IC50: < 50 µM
[7]
  CC50 at 48 h: 371.9 ± 0.26 µM
[4]; Alphacoronavirus 1, CRFK
  EC50: 26.9 ± 1.25 µM
[4]
  Prophylactic antiviral activity SI: 13.80
[4]; CRFK cells
  concentration that completely protects the cells from virus infection: 20 to 50 µM
[1]; Ki value, competitive inhibition, 35 nM FIPV 3CL^pro, substrate 3 to 40 μM
  Ki: 17 ± 1.8 µM
[1]; [14]
  IC50: 29.4 ± 4.6 µM
[5]; Alphacoronavirus 1, CRFK
  EC50: 21.8 ± 1.64 µM
[5]
  Post-viral entry SI: 17.04
[6]; Alphacoronavirus 1, CRFK
  EC50: 16.2 ± 1.33 µM
[6]
  Pre-viral entry SI: 22.90

## CC[C@H]1CN2CCc3cc(OC)c(OC)cc3[C@@H]2C[C@@H]1C[C@H]1NCCc2c1[nH]c1ccc(O)cc21 [NSC131547]
[1]; [10]
  IC50: > 500 µM

## C/C(=C\COc1ccc2ccc(=O)oc2c1)C1=CC(=O)C(C)(C)O1 [NSC142227]
[1]; [10]
  IC50: > 500 µM

## CC(=O)O[C@@H]1[C@@H](O)C2=C3[C@]4(C)[C@@H]1C(C)(C)C(=O)C[C@@H]4[C@]3(O)[C@H](OC(C)=O)[C@@]1(C[C@@H]1C)C2=O [NSC270914]
[1]; [10]
  IC50: > 500 µM

## CO[C@H]1C[C@@H]2\C=C(C)/C=C/C=C\C(=O)N[C@H](c3ccccc3)C/C=C/CC[C@H](O)CC(=O)C2=C1O [NSC343256, Hitachimycin]
[3]
  CC50: 56.9 ± 0.73 µM
[4]; CRFK cells
  concentration that completely protects the cells from virus infection: 20 to 50 µM
[4]; [11]
  EC50: 16.2 ± 1.23 µM
[1]; [10]
  IC50: 24.5 ± 8.9 µM
[5]
  Post-viral entry SI: 2.77
[5]; [12]
  EC50: 4 ± 0.37 µM
[6]
  Pre-viral entry SI: 2.89
[6]; [13]
  EC50: 3.83 ± 0.44 µM

## CC1Oc2cc3c(-c4c(O)cc(O)c5c(O)c6c(cc45)OC(C)C(C)C6=O)c(O)cc(O)c3c(O)c2C(=O)C1C (centres unmarked) [NSC345647, Chaetochromin]
[3]
  CC50: 10.5 ± 0.13 µM
[4]
  Prophylactic antiviral activity SI: 3.69
[4]; CRFK cells
  concentration that completely protects the cells from virus infection: 20 to 50 µM
[4]; [11]
  EC50: 2.85 ± 0.52 µM
[1]; [10]
  IC50: 6.3 ± 2.1 µM
[5]
  Post-viral entry SI: 2.20
[5]; [12]
  EC50: 4.87 ± 0.12 µM
[6]
  Pre-viral entry SI: 8.88
[6]; [13]
  EC50: 1.19 ± 0.95 µM

## NC(=O)c1ncn([C@@H]2O[C@H](CO)[C@@H](O)[C@H]2O)n1 [Ribavirin, reference compound]
[2]
  EC50: 48.9 to 74 µM
[7]
  CC50 at 48 h: > 500 µM
[4]; Alphacoronavirus 1, CRFK
  EC50: > 200 µM
[4]; result in words
  antiviral effect in the prophylaxis study: did not show an antiviral effect
[5]; Alphacoronavirus 1, CRFK
  EC50: 73.98 ± 0.18 µM
[5]
  Post-viral entry SI: 16.96
[6]; Alphacoronavirus 1, CRFK
  EC50: 48.9 ± 1.77 µM
[6]
  Pre-viral entry SI: 25.68
